Test results published in the supplement of paper PMC10307832.

How the values were obtained:
Assay in all cases: relative viability (nuclei count vs DMSO), 5 days (fraction); higher = more cells survive
[1] = compound: COc1cc2nc(N3CCCN(C)CC3)nc(NC3CCN(Cc4ccccc4)CC3)c2cc1OC + O=C(c1cc(Cc2n[nH]c(=O)c3ccccc23)ccc1F)N1CCN(C(=O)C2CC2)CC1 [Olaparib] (partner 8 µM)
Outline: (§1)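 One day after seeding in 1536-well plates, lung cancer cell lines were dosed by pin tool. Dosing was either single-drug or a fixed anchor-drug dose plus five library-drug doses (not always all listed) in √10 steps. After 5 days, nuclei were stained in one fix-and-stain step and counted on 4× images, and relative viability is the nuclei count of treated wells over that of vehicle wells, given as the median of duplicate plates.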

[2] = compound: COc1cc2nc(N3CCCN(C)CC3)nc(NC3CCN(Cc4ccccc4)CC3)c2cc1OC + Cc1nc(NC(=O)N2CCC[C@H]2C(N)=O)sc1-c1ccnc(C(C)(C)C(F)(F)F)c1 [Alpelisib] (partner 2 µM)
Outline: as §1

[3] = compound: Cc1cc([C@@H](C)Nc2ccccc2C(=O)O)c2nc(N3CCOCC3)cc(=O)n2c1 [AZD6482] + C[C@]1(O)C[C@@H](c2nc(-c3ccc4ccc(-c5ccccc5)nc4c3)c3c(N)nccn32)C1 [Linsitinib] (partner 1 µM)
Outline: as §1

[4] = compound: Cc1cc([C@@H](C)Nc2ccccc2C(=O)O)c2nc(N3CCOCC3)cc(=O)n2c1 [AZD6482] + CC(C)C[C@H](NC(=O)[C@H](Cc1ccccc1)NC(=O)c1cnccn1)B(O)O [Bortezomib] (partner 0.002 µM)
Outline: as §1

Row | Cell Line | relative viability ([1]; first compound 0.2 µM) | relative viability ([1]; first compound 0.6325 µM) | relative viability ([1]; first compound 2 µM) | relative viability ([1]; first compound 6.325 µM) | relative viability ([2]; first compound 0.2 µM) | relative viability ([2]; first compound 0.6325 µM) | relative viability ([2]; first compound 2 µM) | relative viability ([2]; first compound 6.325 µM) | relative viability ([3]; first compound 0.08 µM) | relative viability ([3]; first compound 0.253 µM) | relative viability ([3]; first compound 0.8 µM) | relative viability ([3]; first compound 2.53 µM) | relative viability ([3]; first compound 8 µM) | relative viability ([4]; first compound 0.08 µM) | relative viability ([4]; first compound 0.253 µM) | relative viability ([4]; first compound 0.8 µM) | relative viability ([4]; first compound 2.53 µM) | relative viability ([4]; first compound 8 µM)
1 | NCI-H522 | 0.556 | 0.788 | 0.58 | 0.554 | – | – | – | – | – | – | – | – | – | – | – | – | – | –
2 | NCI-H838 | 0.762 | 0.717 | 0.791 | 0.777 | 1.04 | 1.14 | 1.09 | 0.853 | 0.805 | 0.994 | 0.934 | 0.614 | 0.769 | 0.629 | 0.498 | 0.793 | 0.602 | 0.622
3 | SW 900 | 0.675 | 0.926 | 0.705 | 0.677 | – | – | – | – | – | – | – | – | – | – | – | – | – | –
4 | A549 | 0.309 | 0.374 | 0.206 | 0.368 | 0.694 | 0.8 | 0.761 | 0.722 | 0.478 | 0.347 | 0.466 | – | 0.432 | – | – | – | – | –
5 | A-427 | 0.708 | 0.705 | 0.833 | 0.768 | 1.12 | 0.98 | 0.997 | 1.08 | 1.02 | 1.1 | 1.17 | 0.951 | 1.1 | 0.992 | 1.01 | 0.978 | 0.741 | 0.961
6 | NCI-H1792 | 0.49 | 0.409 | 0.485 | 0.441 | 0.725 | 0.74 | 0.717 | 0.737 | 0.313 | 0.41 | 0.501 | 0.319 | 0.271 | 0.856 | 0.859 | 0.991 | 0.677 | 0.483
7 | LCLC-97TM1 | 0.488 | 0.312 | 0.48 | 0.63 | 0.241 | – | 0.243 | 0.258 | 0.189 | 0.158 | 0.168 | 0.134 | 0.169 | 0.499 | 0.38 | 0.435 | – | 0.351
8 | NCI-H1703 | 0.395 | 0.334 | 0.365 | 0.394 | 0.313 | 0.265 | 0.402 | 0.353 | 1.01 | 0.398 | 0.478 | 0.249 | 0.47 | 0.377 | 0.301 | 0.331 | 0.191 | 0.238
9 | LCLC-103H | 0.751 | 0.732 | 0.802 | 0.748 | 1.04 | 0.648 | 0.939 | 0.994 | 0.869 | 0.73 | 0.72 | 0.605 | 0.572 | 0.969 | 1.08 | 0.921 | 0.742 | 0.729
10 | PC-3 [JPC-3] | 1.2 | 1.24 | 1.31 | 0.966 | 1.06 | 0.97 | 1.09 | 0.986 | 0.911 | 1.04 | 1.02 | 0.787 | 0.841 | 0.658 | 0.844 | 0.843 | 0.761 | 0.713
11 | BEN | 1.01 | 1.07 | 1.12 | 1.07 | 1.07 | 1 | 1.13 | 1.06 | 0.884 | 0.93 | 0.988 | 0.717 | 0.85 | 0.592 | 0.768 | 0.596 | 0.641 | 0.788
12 | NCI-H1666 | 0.716 | 0.754 | 0.756 | 0.751 | 0.924 | 0.993 | 0.951 | 0.461 | 0.536 | 0.586 | 0.63 | 0.589 | 0.574 | 0.515 | 0.765 | 0.737 | 0.556 | 0.616
13 | LC-2-ad | 0.778 | 0.728 | 0.72 | 0.701 | 0.883 | 0.89 | 0.943 | 0.896 | 0.61 | 0.48 | 0.605 | 0.318 | 0.511 | 1.07 | 0.962 | 1.1 | 0.754 | 0.926
14 | SK-LU-1 | 0.45 | 0.384 | 0.564 | 0.366 | 1.21 | 0.977 | 1.04 | 0.577 | – | 0.905 | 1.1 | 0.886 | 0.912 | 0.776 | 0.642 | 1.16 | 0.589 | 0.46
15 | ChaGo-K-1 | 0.386 | 0.44 | 0.375 | 0.39 | – | – | – | – | – | – | – | – | – | 1.09 | – | 1.14 | 0.981 | 1.27
16 | COR-L 105 | 0.632 | 0.626 | 0.624 | 0.372 | 1.11 | 0.86 | 1.08 | 0.732 | 0.635 | 0.779 | 0.783 | 0.553 | 0.603 | 0.719 | 0.893 | 0.704 | 0.699 | 0.791
17 | NCI-H358 | 0.51 | 0.628 | 0.644 | 0.568 | 0.935 | 0.888 | 1.01 | 0.533 | 0.545 | 0.795 | 0.679 | 0.293 | 0.528 | – | – | – | – | –
18 | NCI-H1944 | 0.416 | 0.436 | 0.397 | 0.396 | 0.822 | 0.909 | – | 0.912 | 0.929 | 0.834 | 0.922 | 0.688 | 0.622 | – | – | – | – | –
19 | NCI-H1648 | – | 0.713 | – | 1.01 | – | – | – | – | – | – | – | – | – | – | – | – | – | –
20 | NCI-H2342 | 0.482 | 0.349 | 0.46 | 0.459 | – | – | – | – | – | – | – | – | – | – | – | – | – | –
21 | SK-MES-1 | 0.66 | 0.669 | 0.648 | 0.0414 | 1.08 | 0.887 | 0.975 | 0.827 | 0.873 | 1.01 | 0.608 | 0.394 | 0.393 | – | – | – | – | –
22 | NCI-H2170 | 0.623 | 0.576 | 0.675 | 0.566 | 0.838 | 0.805 | 0.851 | 0.835 | – | – | – | – | – | – | – | – | – | –
23 | NCI-H1793 | 0.805 | 0.924 | 1.09 | 0.995 | 0.677 | 0.722 | 0.812 | 0.785 | 0.325 | 0.503 | 0.615 | – | 0.46 | – | – | – | – | –
